Laboratory results: the NIST ThermoML archive (doi:10.1016/j.jct.2005.11.012)

Tests used:
[1] = 101 kPa, Liquid
[2] = refractive index (Na D-line) (dimensionless); conditions: 101.33 kPa, Liquid
[3] = refractive index (Na D-line) (dimensionless); xn = mol fraction of the nth substance listed; conditions: 101 kPa, Liquid
[4] = xn = mol fraction of the nth substance listed; conditions: 101 kPa, Liquid

CCCCCCCO [heptan-1-ol]
Conditions	mass density, [1] [kg/m3]	refractive index, [2]
293.15 K	822.39	1.42397
303.15 K	815.41	1.42002

CCCCCCCCCCO [decan-1-ol]
Conditions	mass density, [1] [kg/m3]	refractive index, [2]
293.15 K	829.7	1.43706
303.15 K	822.85	1.43302

CCCCCCCO [heptan-1-ol] + BrC(Br)C(Br)Br
x2 = 0
Conditions	mass density, [4] [kg/m3]	refractive index, [3]
293.15 K	822.39	1.42397
303.15 K	815.41	1.42002

CCCCCCO [hexan-1-ol] + BrC(Br)C(Br)Br
x2 = 0
Conditions	mass density, [4] [kg/m3]	refractive index, [3]
293.15 K	818.92	1.41826
303.15 K	811.73	1.41423

CCCCCCCCCCO [decan-1-ol] + BrC(Br)C(Br)Br
x2 = 0
Conditions	mass density, [4] [kg/m3]	refractive index, [3]
293.15 K	829.7	1.43706
303.15 K	822.85	1.43302

BrC(Br)C(Br)Br [1,1,2,2-tetrabromoethane] + CCCCCCCO
Conditions	mass density, [4] [kg/m3]	refractive index, [3]
293.15 K, x1 = 0.099	1001.11	1.44056
293.15 K, x1 = 0.1999	1189.38	1.45821
293.15 K, x1 = 0.3001	1383.2	1.47658
293.15 K, x1 = 0.3995	1582.25	1.49566
293.15 K, x1 = 0.5006	1792.24	1.51595
293.15 K, x1 = 0.5987	2003.6	1.5368
293.15 K, x1 = 0.6993	2229.07	1.55935
293.15 K, x1 = 0.799	2461.79	1.58311
293.15 K, x1 = 0.8992	2706	1.60832
293.15 K, x1 = 1	2963.2	1.63535
303.15 K, x1 = 0.099	992.57	1.43619
303.15 K, x1 = 0.1999	1179.18	1.45352
303.15 K, x1 = 0.3001	1371.29	1.47156
303.15 K, x1 = 0.3995	1568.62	1.49038
303.15 K, x1 = 0.5006	1776.88	1.51053
303.15 K, x1 = 0.5987	1986.59	1.53124
303.15 K, x1 = 0.6993	2210.42	1.55368
303.15 K, x1 = 0.799	2441.56	1.57727
303.15 K, x1 = 0.8992	2684.21	1.60236
303.15 K, x1 = 1	2939.86	1.62926

BrC(Br)C(Br)Br [1,1,2,2-tetrabromoethane] + CCCCCCCCO
Conditions	mass density, [4] [kg/m3]	refractive index, [3]
293.15 K, x1 = 0.101	989.26	1.44433
293.15 K, x1 = 0.2013	1161.15	1.45995
293.15 K, x1 = 0.2997	1338.99	1.47641
293.15 K, x1 = 0.3994	1529.17	1.49411
293.15 K, x1 = 0.5002	1732.98	1.51358
293.15 K, x1 = 0.6003	1947.95	1.53421
293.15 K, x1 = 0.6998	2175.4	1.55634
293.15 K, x1 = 0.7998	2419.28	1.58047
293.15 K, x1 = 0.9011	2684.42	1.60696
293.15 K, x1 = 1	2963.2	1.63535
303.15 K, x1 = 0.101	980.93	1.44015
303.15 K, x1 = 0.2013	1151.32	1.45566
303.15 K, x1 = 0.2997	1327.63	1.4717
303.15 K, x1 = 0.3994	1516.19	1.48929
303.15 K, x1 = 0.5002	1718.29	1.50826
303.15 K, x1 = 0.6003	1931.52	1.52869
303.15 K, x1 = 0.6998	2157.22	1.55075
303.15 K, x1 = 0.7998	2399.36	1.57464
303.15 K, x1 = 0.9011	2662.77	1.60101
303.15 K, x1 = 1	2939.86	1.62926

CCCCCCCCO [octan-1-ol]
Conditions	mass density, [1] [kg/m3]	refractive index, [2]
293.15 K	824.99	1.42958
303.15 K	818.09	1.42562

CCCCCO [pentan-1-ol] + BrC(Br)C(Br)Br
x2 = 0
Conditions	mass density, [4] [kg/m3]	refractive index, [3]
293.15 K	815.03	1.40995
303.15 K	807.6	1.40592

BrC(Br)C(Br)Br [1,1,2,2-tetrabromoethane]
Conditions	mass density, [1] [kg/m3]	refractive index, [2]
293.15 K	2963.2	1.63535
303.15 K	2939.86	1.62926
